Source: patent publication US12428397B2, “Factor XI activation inhibitors” (Merck Sharp & Dohme LLC, priority 2020, dated 2025)

These compounds were tested against T1, Human coagulation factor (F)XI (Homo sapiens, UniProt P03951) (assay: Inhibition of FXIIa mediated activation of FXI (activation of human Factor XI to XIa by human Factor α-XIIa)). Conditions: human FXI pre-incubated with compound 30 min at 22° C., activation by human FXIIa 60 min, z-GPR-AFC substrate fluorescence read-out, 4 parameter logistic fit; read-out: Inhibition of FXIIa meditated activation of FXI.
T1 construct: purchased Haematologic Technologies Inc. (FXI); Enzyme Research Laboratories (FXIIa) HCXI-150 (FXI); HFXIIa (FXIIa)
T1 sequence (P03951 19-625): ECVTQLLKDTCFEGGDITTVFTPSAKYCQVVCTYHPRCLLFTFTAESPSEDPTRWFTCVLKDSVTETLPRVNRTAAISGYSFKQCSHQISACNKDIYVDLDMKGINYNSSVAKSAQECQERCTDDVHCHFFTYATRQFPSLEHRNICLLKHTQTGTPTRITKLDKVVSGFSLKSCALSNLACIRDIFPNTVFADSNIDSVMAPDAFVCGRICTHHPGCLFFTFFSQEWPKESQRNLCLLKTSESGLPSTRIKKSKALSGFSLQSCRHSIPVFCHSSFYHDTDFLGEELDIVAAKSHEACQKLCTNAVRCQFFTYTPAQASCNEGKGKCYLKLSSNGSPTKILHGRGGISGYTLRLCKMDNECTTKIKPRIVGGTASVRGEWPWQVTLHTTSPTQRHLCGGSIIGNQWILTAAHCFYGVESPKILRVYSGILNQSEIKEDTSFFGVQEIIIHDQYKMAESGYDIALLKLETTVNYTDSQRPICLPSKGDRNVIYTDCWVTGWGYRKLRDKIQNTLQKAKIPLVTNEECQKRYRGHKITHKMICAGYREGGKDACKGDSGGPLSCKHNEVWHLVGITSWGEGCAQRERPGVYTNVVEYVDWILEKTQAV
Format: biochemical
Experimental: Inhibition of FXIIa Mediated Activation of FXI
Activation of Human Factor XI to XIa by Human Factor α-XIIa
The assay was performed in 50 mM HEPES, 150 mM NaCl, 5 mM CaCl2, 0.1% PEG-8000, pH 7.4 buffer in black, flat-bottom, polystyrene microplates (Corning, Cat #3573). Serial dilutions (10-point, 3.333-fold) of the test compounds delivered as 10 mM DMSO stocks were prepared in the Labcyte Echo-qualified PP 384 well microplates (Labcyte, Cat #P-05525). Human coagulation factor (F)XI (Haematologic Technologies Inc., Cat #HCXI-150, concentration 46 nM, 19.5 uL) was pre-incubated with 0.5 uL of the test compounds for 30 min at 22° C. The activation was initiated by addition of 10 uL of human coagulation factor (F)XIIa (Enzyme Research Laboratories, Cat #HFXIIa, concentration 30 nM) and the reaction proceeded for 60 min at 22° C., after which it was quenched by addition of a selective inhibitor of FXIIa (Compound 54 in WO2018093695) concentration 600 uM in DMSO, 1 uL. 10 min after the quench, 29 uL of z-GPR-AFC substrate (Sigma, Cat #C0980-10MG, concentration 200 uM) was added into each well and the detection reaction proceeded for 60 min at 22° C. Fluorescence at 405/510 nm was measured in end-point mode using an Envision plate-reader (Perkin Elmer). IDBS Activity Base XE (ABase) analysis using 4 parameter logistic fit was performed to determine Minimum, Maximum, EC50, and Slope Factor for each compound.

Question: How did the EC50 turn out when `N#CC1(c2ccccc2)CCN(C(=O)c2cc(C(=O)N3CCCCC3)c3cc(OCc4nc5ccccc5s4)ncc3c2)CC1` [Example 1, 1-(3-(benzo[d]thiazol-2-ylmethoxy)-5-(piperidine-1-carbonyl)isoquinoline-7-carbonyl)-4-phenylpiperidine-4-carbonitrile] was run?
Answer: 37.9 nM

Question: Which EC50 does the source give for `N#CC1(c2ccccc2)CCN(C(=O)c2cc(C(=O)N3CCCCC3)c3cc(OCc4ncc(C(F)(F)F)cc4Cl)ncc3c2)CC1` [Example 2, 1-(3-((3-chloro-5-(trifluoromethyl)pyridin-2-yl)methoxy)-5-(piperidine-1-carbonyl)isoquinoline-7-carbonyl)-4-phenylpiperidine-4-carbonitrile] here?
Answer: 26.8 nM

Question: Which EC50 does the source give for `O=C(c1cc(C(=O)N2CCCCC2)c2cc(OCc3ncc(C(F)(F)F)cc3Cl)ncc2c1)N1CCC(n2ccnn2)CC1` [Example 3, (4-(1H-1,2,3-triazol-1-yl)piperidin-1-yl)(3-((3-chloro-5-(trifluoromethyl)pyridin-2-yl)methoxy)-5-(piperidine-1-carbonyl)isoquinolin-7-yl)methanone] here?
Answer: 32.7 nM

Question: `N#CC1(c2ccccc2)CCN(C(=O)c2cc(C(=O)N3CCCCC3)c3cc(OCCCc4cccnc4)ncc3c2)CC1` [Example 4, 4-phenyl-1-(5-(piperidine-1-carbonyl)-3-(3-(pyridin-3-yl)propoxy)isoquinoline-7-carbonyl)piperidine-4-carbonitrile] was tested. Which EC50 did it give?
Answer: 8.5 nM

Question: Which EC50 does the source give for `O=C(c1cc(C(=O)N2CCCCC2)c2cc(OCc3ncc(Cl)cc3Cl)ncc2c1)N1CCC(n2ccnn2)CC1` [Example 5, (4-(1H-1,2,3-triazol-1-yl)piperidin-1-yl)(3-((3,5-dichloropyridin-2-yl)methoxy)-5-(piperidine-1-carbonyl)isoquinolin-7-yl)methanone] here?
Answer: 41 nM

Question: With `N#CC1(c2ccccc2)CCN(C(=O)c2cc(C(=O)N3CCCCC3)c3cc(OCc4ncc(Cl)cc4Cl)ncc3c2)CC1` [Example 6, 1-(3-((3,5-dichloropyridin-2-yl)methoxy)-5-(piperidine-1-carbonyl)isoquinoline-7-carbonyl)-4-phenylpiperidine-4-carbonitrile] as the compound, how does the EC50 read?
Answer: 19.4 nM

Question: With `N#Cc1cccc(COc2cc3c(C(=O)N4CCCCC4)cc(C(=O)N4CCC(C#N)(c5ccccc5)CC4)cc3cn2)c1` [Example 7, 1-(3-((3-cyanobenzyl)oxy)-5-(piperidine-1-carbonyl)isoquinoline-7-carbonyl)-4-phenylpiperidine-4-carbonitrile] as the compound, how does the EC50 read?
Answer: 23.6 nM

Question: How did the EC50 turn out when `O=C(c1cc(C(=O)N2CCCCC2)c2cc(OCc3ncc(C(F)(F)F)cc3Cl)ncc2c1)N1CCC(n2cccn2)CC1` [Example 8, (4-(1H-pyrazol-1-yl)piperidin-1-yl)(3-((3-chloro-5-(trifluoromethyl)pyridin-2-yl)methoxy)-5-(piperidine-1-carbonyl)isoquinolin-7-yl)methanone] was run?
Answer: 13.4 nM

Question: For `N#Cc1ccc(COc2cc3c(C(=O)N4CCCCC4)cc(C(=O)N4CCC(n5cccn5)CC4)cc3cn2)cn1` [Example 9, 5-(((7-(4-(1H-pyrazol-1-yl)piperidine-l-carbonyl)-5-(piperidine-1-carbonyl)isoquinolin-3-yl)oxy)methyl)picolinonitrile], which EC50 is on record?
Answer: 45.7 nM

Question: For `O=C(c1cc(C(=O)N2CCCCC2)c2cc(OCc3ccc(C(F)(F)F)nc3)ncc2c1)N1CCC(n2cccn2)CC1` [Example 10, (4-(1H-pyrazol-1-yl)piperidin-1-yl)(5-(piperidine-1-carbonyl)-3-((6-(trifluoromethyl)pyridin-3-yl)methoxy)isoquinolin-7-yl)methanone], which EC50 is on record?
Answer: 33.2 nM

Question: Which EC50 does the source give for `N#CC1(c2ccccn2)CCN(C(=O)c2cc(C(=O)N3CCCCC3)c3cc(OCc4ncc(Cl)cc4Cl)ncc3c2)CC1` [Example 11, 1-(3-((3,5-dichloropyridin-2-yl)methoxy)-5-(piperidine-1-carbonyl)isoquinoline-7-carbonyl)-4-(pyridin-2-yl)piperidine-4-carbonitrile] here?
Answer: 4.3 nM

Question: For `N#CC1(c2ccccn2)CCN(C(=O)c2cc(C(=O)N3CCCCC3)c3cc(OCc4ncc(C(F)(F)F)cc4Cl)ncc3c2)CC1` [Example 12, 1-(3-((3-chloro-5-(trifluoromethyl)pyridin-2-yl)methoxy)-5-(piperidine-1-carbonyl)isoquinoline-7-carbonyl)-4-(pyridin-2-yl)piperidine-4-carbonitrile], which EC50 is on record?
Answer: 24.3 nM

Question: How did the EC50 turn out when `O=C(c1cc(C(=O)N2CCCCC2)c2cc(OCc3ccc(Cl)cc3Cl)ncc2c1)N1CCC(n2cccn2)CC1` [Example 13, (4-(1H-pyrazol-1-yl)piperidin-1-yl)(3-((2,4-dichlorobenzyl)oxy)-5-(piperidine-1-carbonyl)isoquinolin-7-yl)methanone] was run?
Answer: 49.5 nM

Question: Which EC50 does the source give for `O=C(c1cc(C(=O)N2CCCCC2)c2cc(OCc3ncc(Cl)cc3Cl)ncc2c1)N1CCC(n2cccn2)CC1` [Example 14, (4-(1H-pyrazol-1-yl)piperidin-1-yl)(3-((3,5-dichloropyridin-2-yl)methoxy)-5-(piperidine-1-carbonyl)isoquinolin-7-yl)methanone] here?
Answer: 8.8 nM

Question: For `O=C(c1cc(C(=O)N2CCCCC2)c2cc(OCc3nc4ccccc4s3)ncc2c1)N1CCC(n2cccn2)CC1` [Example 15, (4-(1H-pyrazol-1-yl)piperidin-1-yl)(3-(benzo[d]thiazol-2-ylmethoxy)-5-(piperidine-1-carbonyl)isoquinolin-7-yl)methanone], which EC50 is on record?
Answer: 19.9 nM
